Assay results published in ChEMBL document CHEMBL2396621, “Design, synthesis and biological evaluation of 2-mercapto-3-phenethylquinazoline bearing anilide fragments as potential antitumor agents: molecular docking study” (2013).

Legend:
Format in all cases: functional
NCI-H322M = assay: Cytotoxicity against human NCI-H322M cells assessed as growth inhibition at 10 uM after 48 hrs by coulter counter analysis; settings: read-out: GI
NCI-H23 = assay: Cytotoxicity against human NCI-H23 cells assessed as growth inhibition at 10 uM after 48 hrs by coulter counter analysis; settings: NCI-H23, 48 h, read-out: GI
HOP-62 = assay: Cytotoxicity against human HOP62 cells assessed as growth inhibition at 10 uM after 48 hrs by coulter counter analysis; settings: HOP-62, 48 h, read-out: GI
[1] = Cytotoxicity against human EKVX cells assessed as growth inhibition at 10 uM after 48 hrs by coulter counter analysis; settings: read-out: GI
A549 = assay: Cytotoxicity against human A549 cells assessed as growth inhibition at 10 uM after 48 hrs by coulter counter analysis; settings: A549, 48 h, read-out: GI
MDA-MB-468 = assay: Cytotoxicity against human MDA-MB-468 cells assessed as growth inhibition at 10 uM after 48 hrs by coulter counter analysis; settings: MDA-MB-468, 48 h, read-out: GI
T47D = assay: Cytotoxicity against human T47D cells assessed as growth inhibition at 10 uM after 48 hrs by coulter counter analysis; settings: read-out: GI
BT-549 = assay: Cytotoxicity against human BT549 cells assessed as growth inhibition at 10 uM after 48 hrs by coulter counter analysis; settings: BT-549, 48 h, read-out: GI
Hs-578T = assay: Cytotoxicity against human Hs578T cells assessed as growth inhibition at 10 uM after 48 hrs by coulter counter analysis; settings: read-out: GI
MDA-MB-231 = assay: Cytotoxicity against human MDA-MB-231 cells assessed as growth inhibition at 10 uM after 48 hrs by coulter counter analysis; settings: MDA-MB-231, 48 h, read-out: GI
DU-145 = assay: Cytotoxicity against human DU145 cells assessed as growth inhibition at 10 uM after 48 hrs by coulter counter analysis; settings: DU-145, 48 h, read-out: GI
PC-3 = assay: Cytotoxicity against human PC3 cells assessed as growth inhibition at 10 uM after 48 hrs by coulter counter analysis; settings: PC-3, 48 h, read-out: GI
UO-31 = assay: Cytotoxicity against human UO31 cells assessed as growth inhibition at 10 uM after 48 hrs by coulter counter analysis; settings: UO-31, 48 h, read-out: GI
TK-10 = assay: Cytotoxicity against human TK10 cells assessed as growth inhibition at 10 uM after 48 hrs by coulter counter analysis; settings: TK-10, 48 h, read-out: GI
SN12C = assay: Cytotoxicity against human SN12C cells assessed as growth inhibition at 10 uM after 48 hrs by coulter counter analysis; settings: read-out: GI
RXF 393 = assay: Cytotoxicity against human RXF393 cells assessed as growth inhibition at 10 uM after 48 hrs by coulter counter analysis; settings: RXF 393, 48 h, read-out: GI
CAKI-1 = assay: Cytotoxicity against human Caki1 cells assessed as growth inhibition at 10 uM after 48 hrs by coulter counter analysis; settings: CAKI-1, 48 h, read-out: GI
ACHN = assay: Cytotoxicity against human ACHN cells assessed as growth inhibition at 10 uM after 48 hrs by coulter counter analysis; settings: read-out: GI
A498 = assay: Cytotoxicity against human A498 cells assessed as growth inhibition at 10 uM after 48 hrs by coulter counter analysis; settings: A498, 48 h, read-out: GI
SK-OV-3 = assay: Cytotoxicity against human SKOV3 cells assessed as growth inhibition at 10 uM after 48 hrs by coulter counter analysis; settings: SK-OV-3, 48 h, read-out: GI
[2] = Cytotoxicity against human NCI-ADR-RES cells assessed as growth inhibition at 10 uM after 48 hrs by coulter counter analysis; settings: read-out: GI
OVCAR-8 = assay: Cytotoxicity against human OVCAR8 cells assessed as growth inhibition at 10 uM after 48 hrs by coulter counter analysis; settings: OVCAR-8, 48 h, read-out: GI
OVCAR-5 = assay: Cytotoxicity against human OVCAR5 cells assessed as growth inhibition at 10 uM after 48 hrs by coulter counter analysis; settings: OVCAR-5, 48 h, read-out: GI
OVCAR-4 = assay: Cytotoxicity against human OVCAR4 cells assessed as growth inhibition at 10 uM after 48 hrs by coulter counter analysis; settings: OVCAR-4, 48 h, read-out: GI
OVCAR-3 = assay: Cytotoxicity against human OVCAR3 cells assessed as growth inhibition at 10 uM after 48 hrs by coulter counter analysis; settings: OVCAR-3, 48 h, read-out: GI
UACC-62 = assay: Cytotoxicity against human UACC62 cells assessed as growth inhibition at 10 uM after 48 hrs by coulter counter analysis; settings: UACC-62, 48 h, read-out: GI
UACC-257 = assay: Cytotoxicity against human UACC257 cells assessed as growth inhibition at 10 uM after 48 hrs by coulter counter analysis; settings: UACC-257, 48 h, read-out: GI
SK-MEL-5 = assay: Cytotoxicity against human SK-MEL-5 cells assessed as growth inhibition at 10 uM after 48 hrs by coulter counter analysis; settings: SK-MEL-5, 48 h, read-out: GI
SK-MEL-28 = assay: Cytotoxicity against human SK-MEL-28 cells assessed as growth inhibition at 10 uM after 48 hrs by coulter counter analysis; settings: SK-MEL-28, 48 h, read-out: GI
MDA-MB-435 = assay: Cytotoxicity against human MDA-MB-435 cells assessed as growth inhibition at 10 uM after 48 hrs by coulter counter analysis; settings: MDA-MB-435, 48 h, read-out: GI
M14 = assay: Cytotoxicity against human M14 cells assessed as growth inhibition at 10 uM after 48 hrs by coulter counter analysis; settings: M14, 48 h, read-out: GI
Malme-3M = assay: Cytotoxicity against human MALME-3M cells assessed as growth inhibition at 10 uM after 48 hrs by coulter counter analysis; settings: read-out: GI
U-251 = assay: Cytotoxicity against human U251 cells assessed as growth inhibition at 10 uM after 48 hrs by coulter counter analysis; settings: U-251, 48 h, read-out: GI
SNB-75 = assay: Cytotoxicity against human SNB75 cells assessed as growth inhibition at 10 uM after 48 hrs by coulter counter analysis; settings: SNB-75, 48 h, read-out: GI
SNB-19 = assay: Cytotoxicity against human SNB19 cells assessed as growth inhibition at 10 uM after 48 hrs by coulter counter analysis; settings: SNB-19, 48 h, read-out: GI
SF-539 = assay: Cytotoxicity against human SF539 cells assessed as growth inhibition at 10 uM after 48 hrs by coulter counter analysis; settings: SF-539, 48 h, read-out: GI
SF-295 = assay: Cytotoxicity against human SF295 cells assessed as growth inhibition at 10 uM after 48 hrs by coulter counter analysis; settings: SF-295, 48 h, read-out: GI
SW-620 = assay: Cytotoxicity against human SW620 cells assessed as growth inhibition at 10 uM after 48 hrs by coulter counter analysis; settings: SW-620, 48 h, read-out: GI
KM12 = assay: Cytotoxicity against human KM12 cells assessed as growth inhibition at 10 uM after 48 hrs by coulter counter analysis; settings: KM12, 48 h, read-out: GI
HT-29 = assay: Cytotoxicity against human HT-29 cells assessed as growth inhibition at 10 uM after 48 hrs by coulter counter analysis; settings: HT-29, 48 h, read-out: GI
HCT-15 = assay: Cytotoxicity against human HCT15 cells assessed as growth inhibition at 10 uM after 48 hrs by coulter counter analysis; settings: HCT-15, 48 h, read-out: GI
HCT-116 = assay: Cytotoxicity against human HCT116 cells assessed as growth inhibition at 10 uM after 48 hrs by coulter counter analysis; settings: HCT-116, 48 h, read-out: GI
HCC 2998 = assay: Cytotoxicity against human HCC2998 cells assessed as growth inhibition at 10 uM after 48 hrs by coulter counter analysis; settings: HCC 2998, 48 h, read-out: GI
COLO 205 = assay: Cytotoxicity against human COLO205 cells assessed as growth inhibition at 10 uM after 48 hrs by coulter counter analysis; settings: COLO 205, 48 h, read-out: GI
NCI-H460 = assay: Cytotoxicity against human NCI-H460 cells assessed as growth inhibition at 10 uM after 48 hrs by coulter counter analysis; settings: NCI-H460, 48 h, read-out: GI

NC(=O)CSc1nc2ccccc2c(=O)n1CCc1ccccc1
inhibition of growth at 10 µM (NCI-H322M): < 10%
inhibition of growth at 10 µM (NCI-H23): < 10%
inhibition of growth at 10 µM (HOP-62): < 10%
inhibition of growth at 10 µM [1]: 10%
inhibition of growth at 10 µM (A549): 12%
inhibition of growth at 10 µM (MDA-MB-468): < 10%
inhibition of growth at 10 µM (T47D): < 10%
inhibition of growth at 10 µM (BT-549): < 10%
inhibition of growth at 10 µM (Hs-578T): < 10%
inhibition of growth at 10 µM (MDA-MB-231): < 10%
inhibition of growth at 10 µM (DU-145): < 10%
inhibition of growth at 10 µM (PC-3): < 10%
inhibition of growth at 10 µM (UO-31): < 10%
inhibition of growth at 10 µM (TK-10): < 10%
inhibition of growth at 10 µM (SN12C): < 10%
inhibition of growth at 10 µM (RXF 393): < 10%
inhibition of growth at 10 µM (CAKI-1): 12%
inhibition of growth at 10 µM (ACHN): 34%
inhibition of growth at 10 µM (A498): < 10%
inhibition of growth at 10 µM (SK-OV-3): < 10%
inhibition of growth at 10 µM [2]: < 10%
inhibition of growth at 10 µM (OVCAR-8): < 10%
inhibition of growth at 10 µM (OVCAR-5): < 10%
inhibition of growth at 10 µM (OVCAR-4): < 10%
inhibition of growth at 10 µM (OVCAR-3): < 10%
inhibition of growth at 10 µM (UACC-62): < 10%
inhibition of growth at 10 µM (UACC-257): < 10%
inhibition of growth at 10 µM (SK-MEL-5): < 10%
inhibition of growth at 10 µM (SK-MEL-28): < 10%
inhibition of growth at 10 µM (MDA-MB-435): < 10%
inhibition of growth at 10 µM (M14): < 10%
inhibition of growth at 10 µM (Malme-3M): < 10%
inhibition of growth at 10 µM (U-251): < 10%
inhibition of growth at 10 µM (SNB-75): < 10%
inhibition of growth at 10 µM (SNB-19): < 10%
inhibition of growth at 10 µM (SF-539): < 10%
inhibition of growth at 10 µM (SF-295): < 10%
inhibition of growth at 10 µM (SW-620): < 10%
inhibition of growth at 10 µM (KM12): < 10%
inhibition of growth at 10 µM (HT-29): < 10%
inhibition of growth at 10 µM (HCT-15): < 10%
inhibition of growth at 10 µM (HCT-116): < 10%
inhibition of growth at 10 µM (HCC 2998): < 10%
inhibition of growth at 10 µM (COLO 205): < 10%
inhibition of growth at 10 µM (NCI-H460): < 10%
